This is an account of results in patent publication US12435051B2, “Dual modulator of mGluR5 and 5-HT2A receptor, and use thereof” (Vivozon Inc., priority 2020, dated 2025).

For one experiment, the target named is T1, human 5-HT2AR (Homo sapiens, UniProt P28223).
T1 construct: expressed in transfected cells; host or cells: HEK293
The experiment can be described thus: HTRF-based IP1 accumulation assay (5-HT2AR antagonistic effect). The format is cell-based. The note with it: HEK293 cells overexpressing human 5-HT2AR; serotonin at EC80. The essentials:
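HEK293 cells stably overexpressing human 5-HT2AR were pre-incubated with compound (top 10 μM, serial dilutions, LiCl buffer) 10 min at room temperature, then stimulated with EC80 serotonin 30 min at 37 °C. IP1 accumulation was read by HTRF; IC50s came from activity normalized to serotonin and IP1 controls.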
On the technique in general: In TR-FRET formats the signal depends on donor and acceptor labels being close together.

Another experiment has as its target T2, mGluR5 (Homo sapiens, UniProt P41594).
T2 construct: expressed in transfected cells; host or cells: HEK293
As to the kind of experiment: Fluorescence-based Ca2+ mobilization assay. The conditions noted are these: HEK293 cells overexpressing mGluR5; L-glutamate at EC80. The format is cell-based. Summed up:
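HEK293 cells stably overexpressing mGluR5, dye-loaded 60 min at 37 °C, then preincubated with compound 30 min at room temperature in the dark. Ca2+ response to L-glutamate at EC80 read on FLIPR for 2 min. Signal normalised to glutamate (100%) and vehicle (0%); IC50 from % inhibition.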

For experiment [1], the system named is physical (tactile) allodynia in spinal nerve ligation model. The experiment can be described thus: Analgesic efficacy experiment using animal model (Chung model, spinal nerve ligation). It counts as in vivo, Sprague-Dawley rats. Here is the method:
The Chung model (spinal nerve ligation model) is a representative animal model to study neuropathic pain and is widely accepted as a gold standard for an animal pain model by global pharmaceutical companies around the world.
In this experiment, male Sprague-Dawley rats (100-120 g) purchased from Koatech (Pyeongtaek-si, Gyeonggi-do) were used. Rats were kept in a room maintained at constant temperature and humidity with a 12 hour light-dark cycle. Rats were allowed to eat and drink freely during the experiment.
For the Chung surgery, rats were anesthetized by isoflurane inhalation and the left lumbar nerves L5 and L6 were tightly tied with a suture thread (6-0 silk thread) at the end of the dorsal ganglion and at a front of an entrance to the sciatic nerve according to the article (Kim and Chung (1992), Pain 50(3):355-63). After suturing the incision, the rats were recovered for 2 weeks in the controlled maintenance room to induce physical allodynia in the left hind paw of the rat. To measure physical (tactile) allodynia, the rats were placed in a cage with a wire mesh on the bottom. Stimuli of increasing intensity (using the von Frey filaments in a range of 0.41 to 15.8 g) were placed on the plantar surface on the side of the nerve injury. The stimulus intensity at which the pain response (abrupt lifting, licking or sucking of the foot) was induced was recorded while applying gradual increment of stimuli. As described in the study of Chaplan et al. (1994) (Chaplan et al. (1994) J. Neurosci. Methods 53(1):55-63), the paw withdrawal threshold (PWT) was determined by increasing or decreasing continuous stimulus intensity, and the result was analyzed by applying Dixon's up-down method. Only rats showing no behavior dysfunction (e.g., feet dragging or dropping) were selected and included in the study, and the PWT of the rats used was 3.16 g or less.
After measuring the degree of basic reaction before drug injection, each compound and solvent were injected by oral administration (12.5-100 mg/kg), and the measurement was repeated at regular time intervals (60 and 120 minutes) after the drug was injected.
The experimenter conducted the PWT measurement in a blind condition not knowing which rat was administered with which drug. The control group was administered with gabapentin (65 mg/kg, intraperitoneal administration), and was randomly mixed during the measurement. Statistical analysis was performed on the measured pain response threshold by calculating the reversal rate (% reversal) from pain in Equation 1 below. […] Pain reversal rate (% reversal)=[(PWT after drug administration)−(PWT before drug administration)]*100/[(15 g, Estimated PWT in normal animals)−(PWT before drug administration)] [Equation 1]
The PWT used in this time is a value obtained by multiplying the gram, the unit of “force” measure, by 10,000, and taking the logarithm, which is a method generally used in academia.
Each experiment consisted of the compound group, the solvent group of the compound and the gabapentin (GBP) group as positive control group. As solvent of the compound, 0.5% HPMC (hydroxypropylmethyl cellulose) was used.

Experiment [2] concerns spinal nerve ligation model (neuropathic pain model). The experiment can be described thus: Confirmation of synergistic analgesic effect via dual action (spinal nerve ligation model). The format is in vivo. The note with it: sub-effective doses, FIG. 1. As for the experimental part: The confirmation of the synergistic analgesic effect via the dual action of mGluR5 and 5-HT2AR was carried out by the use of representative mGluR5 antagonist MPEP (2-methyl-6-(phenylethynyl)pyridine) and 5-HT2AR antagonist MDL11,939 in a “spinal nerve ligation model” which is a neuropathic pain model.
In order to measure the analgesic effect of MPEP and MDL11,939, when administered alone or simultaneously together, the reversibility rate of pain relieving parameter (% reversal) was calculated according to the method of Experimental Example 4 and the results are represented in FIG. 1.

[3] abbreviates: rat, oral, 25 mpk, 1 h, read-out: % reversal (1 h).
Where [4] appears, read: rat, oral, 25 mpk, 2 h, read-out: % reversal (2 h).
[5] abbreviates: Rattus norvegicus, po, 1 h, read-out: % reversal (1 h).
The mark [6] stands for this setting: Rattus norvegicus, po, 2 h, read-out: % reversal (2 h).
[7] abbreviates: rat, oral, 50 mpk, 1 h, read-out: % reversal (1 h).
[8] abbreviates: rat, oral, 50 mpk, 2 h, read-out: % reversal (2 h).

Read-outs that look alike come from different tables or passages of the source.

T1 sequence (P28223 whole entry): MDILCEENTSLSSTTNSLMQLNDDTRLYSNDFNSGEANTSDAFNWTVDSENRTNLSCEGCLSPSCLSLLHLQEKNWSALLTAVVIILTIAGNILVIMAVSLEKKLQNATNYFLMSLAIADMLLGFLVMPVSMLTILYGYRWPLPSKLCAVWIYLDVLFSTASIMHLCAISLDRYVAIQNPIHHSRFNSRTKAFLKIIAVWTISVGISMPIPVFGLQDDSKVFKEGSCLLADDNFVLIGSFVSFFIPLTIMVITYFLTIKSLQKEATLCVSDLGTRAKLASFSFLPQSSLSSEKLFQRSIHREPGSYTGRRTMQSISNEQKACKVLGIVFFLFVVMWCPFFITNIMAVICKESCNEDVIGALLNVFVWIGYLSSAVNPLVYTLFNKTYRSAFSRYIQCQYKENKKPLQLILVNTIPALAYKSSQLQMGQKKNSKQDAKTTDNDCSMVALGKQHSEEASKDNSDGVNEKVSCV
T2 sequence (P41594 21-1212): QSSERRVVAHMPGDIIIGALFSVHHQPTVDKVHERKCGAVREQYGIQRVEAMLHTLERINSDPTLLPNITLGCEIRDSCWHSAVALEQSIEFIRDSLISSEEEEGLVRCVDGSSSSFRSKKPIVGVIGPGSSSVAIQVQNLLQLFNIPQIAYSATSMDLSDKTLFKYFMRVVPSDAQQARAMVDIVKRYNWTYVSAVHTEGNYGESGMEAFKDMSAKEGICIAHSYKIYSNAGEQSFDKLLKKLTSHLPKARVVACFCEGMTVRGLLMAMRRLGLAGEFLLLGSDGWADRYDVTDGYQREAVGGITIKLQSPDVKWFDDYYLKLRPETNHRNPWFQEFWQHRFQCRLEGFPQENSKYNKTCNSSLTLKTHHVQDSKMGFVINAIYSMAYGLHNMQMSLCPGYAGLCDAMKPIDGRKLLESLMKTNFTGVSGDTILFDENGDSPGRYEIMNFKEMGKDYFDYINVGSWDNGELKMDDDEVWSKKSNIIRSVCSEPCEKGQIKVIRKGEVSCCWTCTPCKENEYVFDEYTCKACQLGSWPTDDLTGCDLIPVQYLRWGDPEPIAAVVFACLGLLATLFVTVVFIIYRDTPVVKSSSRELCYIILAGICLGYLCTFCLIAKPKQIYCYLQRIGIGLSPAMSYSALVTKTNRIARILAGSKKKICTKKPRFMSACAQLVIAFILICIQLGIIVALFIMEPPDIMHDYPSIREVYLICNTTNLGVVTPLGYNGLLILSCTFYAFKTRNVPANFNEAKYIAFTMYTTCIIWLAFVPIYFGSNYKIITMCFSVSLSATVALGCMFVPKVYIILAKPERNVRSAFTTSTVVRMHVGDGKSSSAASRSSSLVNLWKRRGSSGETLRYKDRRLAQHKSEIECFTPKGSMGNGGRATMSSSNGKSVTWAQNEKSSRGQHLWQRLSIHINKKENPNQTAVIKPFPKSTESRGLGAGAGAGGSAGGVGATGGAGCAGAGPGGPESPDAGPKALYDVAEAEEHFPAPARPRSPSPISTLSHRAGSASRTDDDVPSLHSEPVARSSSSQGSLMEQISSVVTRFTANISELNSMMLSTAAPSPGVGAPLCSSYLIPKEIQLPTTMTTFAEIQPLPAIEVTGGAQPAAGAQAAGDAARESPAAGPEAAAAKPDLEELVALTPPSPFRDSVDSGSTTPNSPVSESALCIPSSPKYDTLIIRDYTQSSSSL

`COC1(CNC(=O)c2ccc(C#Cc3ccccc3F)cc2)CCOCC1` [Example 66, 4-((2-fluorophenyl)ethynyl)-N-((4-methoxytetrahydro-2H-pyran-4-yl)methyl)benzamide]: the IC50 was 500 to 1000 nM against human 5-HT2AR and less than 100 nM against mGluR5. In addition, the inhibition in vivo at 25 mg/kg came out at 64.1% in experiment [1] (setting [3]) and 43.2% in experiment [1] (setting [4]).
In the case of `O=C(NC[C@H]1CCOC1)c1ccc(C#Cc2ccccc2F)cc1` [Example 69, (R)-4-((2-fluorophenyl)ethynyl)-N-((tetrahydrofuran-3-yl)methyl)benzamide], the IC50 fell in the range of 500 to 1000 nM against human 5-HT2AR and 100 to 500 nM against mGluR5. Further, the inhibition in vivo at 50 mg/kg in experiment [1] (setting [5]) and in experiment [1] (setting [6]) was 110% each time.
Regarding `CCC1(CNC(=O)c2ccc(C#Cc3ccccc3F)cc2)COC1` [Example 72, N-((3-ethyloxetan-3-yl)methyl)-4-((2-fluorophenyl)ethynyl)benzamide], the values for the IC50 against human 5-HT2AR and against mGluR5 were 100 to 500 nM and less than 100 nM, respectively. The inhibition in vivo at 50 mg/kg was found to be 41.9% in experiment [1] (setting [7]) and 71.8% in experiment [1] (setting [8]).
For `O=C(NCC1(O)COC1)c1ccc(C#Cc2ccccc2F)cc1` [Example 82, 4-((2-fluorophenyl)ethynyl)-N-((3-hydroxyoxetan-3-yl)methyl)benzamide], the IC50 against human 5-HT2AR and against mGluR5 was 500 to 1000 nM each time. The inhibition in vivo at 50 mg/kg in experiment [1] (setting [7]) is 70.3%; in experiment [1] (setting [8]), 89.1%.
As for `CC1(CNC(=O)c2ccc(C#Cc3ccc(F)cc3)cc2)COC1` [Example 83, 4-((4-fluorophenyl)ethynyl)-N-((3-methyloxetan-3-yl)methyl)benzamide], the IC50 is 100 to 500 nM against human 5-HT2AR and less than 100 nM against mGluR5. Further, the figures for the inhibition in vivo at 25 mg/kg in experiment [1] (setting [3]) and in experiment [1] (setting [4]) were 55% and 67.8%, respectively.
With `C[C@]1(O)C[C@@H](CNC(=O)c2ccc(C#Cc3ccccc3F)cc2)C1` [Example 87, 4-((2-fluorophenyl)ethynyl)-N-(((1s,3s)-3-hydroxy-3-methylcyclobutyl)methyl)benzamide], the IC50 against human 5-HT2AR was 100 to 500 nM; on mGluR5, less than 100 nM. For the same molecule, the inhibition in vivo at 50 mg/kg in experiment [1] (setting [7]) was 93.7%; in experiment [1] (setting [8]), 104%.
Turning to `O=C(NCC1CCC(F)(F)CC1)c1ccc(C#Cc2ccncc2)cc1` [Example 88, N-((4,4-difluorocyclohexyl)methyl)-4-(pyridin-4-ylethynyl)benzamide], the IC50 on human 5-HT2AR was 500 to 1000 nM; against mGluR5 it was less than 100 nM. Besides, the inhibition in vivo at 50 mg/kg in experiment [1] (setting [7]) was 97.8%; in experiment [1] (setting [8]) it was 110%.
For `O=C(NCC1CC(F)(F)C1)c1ccc(C#Cc2ccncc2)cc1` [Example 89, N-((3,3-difluorocyclobutyl)methyl)-4-(pyridin-4-ylethynyl)benzamide], the IC50 is 100 to 500 nM against human 5-HT2AR and less than 100 nM at mGluR5. Also, the inhibition in vivo at 50 mg/kg in experiment [1] (setting [7]) was found to be 111%; in experiment [1] (setting [8]), 103%.
`O=C(NC[C@H]1CCCOC1)c1ccc(C#Cc2ccccc2F)cc1` [Example 92, (R)-4-((2-fluorophenyl)ethynyl)-N-((tetrahydro-2H-pyran-3-yl)methyl)benzamide]: the IC50 is 100 to 500 nM against human 5-HT2AR and less than 100 nM on mGluR5. Besides, the inhibition in vivo at 25 mg/kg in experiment [1] (setting [5]) amounted to 39.8%; in experiment [1] (setting [6]), 48.7%.
In the case of `O=C(NCC1CCOC1)c1ccc(C#Cc2ccc(F)cc2)cc1` (stereo not drawn) [Example 94, 4-((4-fluorophenyl)ethynyl)-N-((tetrahydrofuran-3-yl)methyl)benzamide], the IC50 against human 5-HT2AR and against mGluR5 was 100 to 500 nM throughout. Besides, the inhibition in vivo at 50 mg/kg in experiment [1] (setting [7]) is 74.2%; in experiment [1] (setting [8]), 97.7%.
Regarding `OC(c1ccccc1)C1CCN(CCc2ccccc2)CC1` (stereo not drawn) [MDL11,939], the “analgesic effect (% reversal), administered alone” value in experiment [2] is listed as “did not show a significant analgesic effect”.
Consider `Cc1cccc(C#Cc2ccccc2)n1` [MPEP, 2-methyl-6-(phenylethynyl)pyridine], for which the “analgesic effect (% reversal), administered alone” value in experiment [2] is “did not show a significant analgesic effect”.

Broadly, the IC50 is the concentration needed to halve the response being measured. Low readings indicate inhibition by little substance, high ones a need for much substance.
